Tests used:
human LXRα = target: T1, human LXRα (Homo sapiens, UniProt Q13133); assay: Ligand-binding test procedure for human LXRα (3H T0901317 tracer, flash plates); conditions: biotinylated hLXRα, tracer 3H T0901317, +4° C. over night
T1 construct: biotin (biotinylated); made in house; host or cells: E. coli
T1 sequence (Q13133 1-447): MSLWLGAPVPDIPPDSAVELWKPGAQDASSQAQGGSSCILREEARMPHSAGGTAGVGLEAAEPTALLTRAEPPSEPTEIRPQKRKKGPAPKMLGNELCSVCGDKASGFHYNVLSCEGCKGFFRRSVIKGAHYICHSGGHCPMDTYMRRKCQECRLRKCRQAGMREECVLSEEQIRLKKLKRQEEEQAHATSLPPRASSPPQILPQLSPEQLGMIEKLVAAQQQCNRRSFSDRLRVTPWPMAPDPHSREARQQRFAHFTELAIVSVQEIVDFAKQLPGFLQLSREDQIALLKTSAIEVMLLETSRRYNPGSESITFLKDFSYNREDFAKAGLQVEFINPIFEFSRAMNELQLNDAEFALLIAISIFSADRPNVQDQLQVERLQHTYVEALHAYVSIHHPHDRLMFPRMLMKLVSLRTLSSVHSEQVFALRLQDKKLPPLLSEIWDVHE
Description: II. Ligand-Binding Test Procedure for Human LXRα.
Receptor source: E. coli extract from cells expressing biotinylated hLXRα. Extract was made in a similar buffer as above, but with 50 mM TRIS.
Washed streptavidin and coated flash plates with wash buffer. Diluted receptor extract to give Bmax˜4000 cpm and add to the wells. Wrapped the plates in aluminum foil and stored them at +4° C. over night.
(§1) Made a dilution series in DMSO of the test ligands. Made a 5 nM solution of the radioactive tracer in buffer. Mixed 250 μl diluted tracer with 5 μl of the test ligand from each concentration of the dilution series. Washed the receptor-coated flash plates. Added 200 μl per well of the ligand/radiolabel mixture to the receptor-coated flash plates. Wrapped the plates in aluminum foil and incubate at +4° C. over night.
Aspirated wells, and wash the flashed plates. Sealed the plate. Measured the remaining radioactivity in the plate.

human LXRβ = target: T2, human LXRβ (Homo sapiens, UniProt P55055); assay: Ligand-binding test procedure for human LXRβ (3H T0901317 tracer, flash plates); conditions: biotinylated hLXRβ, tracer 3H T0901317, +4° C. over night
T2 construct: biotin (biotinylated); made in house; host or cells: E. coli
T2 sequence (P55055 1-460): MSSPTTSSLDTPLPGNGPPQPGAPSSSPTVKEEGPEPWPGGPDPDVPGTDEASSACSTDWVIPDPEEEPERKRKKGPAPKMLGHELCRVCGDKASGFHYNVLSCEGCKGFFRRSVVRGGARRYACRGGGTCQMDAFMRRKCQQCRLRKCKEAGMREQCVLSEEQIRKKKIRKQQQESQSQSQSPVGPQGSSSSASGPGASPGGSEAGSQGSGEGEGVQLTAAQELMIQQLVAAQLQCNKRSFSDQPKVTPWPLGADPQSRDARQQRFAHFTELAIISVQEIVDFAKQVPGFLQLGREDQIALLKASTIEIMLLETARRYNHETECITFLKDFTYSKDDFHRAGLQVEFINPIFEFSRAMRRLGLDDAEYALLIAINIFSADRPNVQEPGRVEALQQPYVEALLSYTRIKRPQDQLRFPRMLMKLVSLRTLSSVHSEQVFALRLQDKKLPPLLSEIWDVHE
Description: I. Ligand-Binding Test Procedure for Human LXRβ.
Receptor source: E. coli extracted from cells expressing biotinylated hLXRβ. Extract was made in a similar buffer as above, but with 50 mM TRIS.
Washed streptavidin and coated flash plates with wash buffer. Diluted receptor extract to give Bmax˜4000 cpm and add to the wells. Wrapped the plates in aluminum foil and stored them at +4° C. overnight.
as §1
Aspirated wells, and washed the flashed plates. Sealed the plate.
Measured the remaining radioactivity in the plate.

Row | Structure (SMILES) | IC50 (human LXRα) [nM] | IC50 (human LXRβ) [nM]
1 | Cc1nc2c(Cl)cccc2nc1Oc1cccc(-c2cccc(S(C)(=O)=O)c2)c1 [Example 80, 5-chloro-3-methyl-2-{[3′-(methylsulfonyl)biphenyl-3-yl]oxy}quinoxaline] | 818 | 108
2 | Cc1nc2c(C(F)(F)F)cccc2nc1-c1cc(Oc2cc(Cl)cc(S(C)(=O)=O)c2)ccc1Cl [Example 60, 2-{2-chloro-5-[3-chloro-5-(methylsulfonyl)phenoxy]phenyl}-3-methyl-5-(trifluoromethyl)-quinoxaline] | > 1000 | 159
3 | Cc1nc2c(Cl)cccc2nc1Oc1ccc(-c2cccc(S(C)(=O)=O)c2)cc1 [Example 82, 5-chloro-3-methyl-2-{[3′-(methylsulfonyl)biphenyl-4-yl]oxy}quinoxaline] | > 1000 | 1030
4 | CS(=O)(=O)c1cccc(Oc2cccc(-c3cnc4c(Cl)cccc4n3)c2)c1 [Example 8, 5-chloro-2-{3-[3-(methylsulfonyl)phenoxy]phenyl}quinoxaline] | > 1000 | 1650
5 | Cc1nc2cccc(C(F)(F)F)c2nc1-c1ccc(-c2cccc(S(C)(=O)=O)c2)cc1F [Example 6, 3-[3-fluoro-3′-(methylsulfonyl)biphenyl-4-yl]-2-methyl-5-(trifluoromethyl)quinoxaline] | > 1000 | 398
6 | Cc1nc2cccc(C(F)(F)F)c2nc1-c1cc(Oc2cc(Cl)cc(S(C)(=O)=O)c2)ccc1Cl [Example 65, 3-{2-chloro-5-[3-chloro-5-(methylsulfonyl)phenoxy]phenyl}-2-methyl-5-(trifluoromethyl)-quinoxaline] | > 1000 | 453
7 | CCS(=O)(=O)c1cccc(-c2cccc(Oc3nc4cccc(Cl)c4nc3C)c2)c1 [Example 81, 5-chloro-2-{[3′-(ethylsulfonyl)biphenyl-3-yl]oxy}-3-methylquinoxaline] | > 1000 | 240
8 | COc1cccc2nc(-c3ccc(-c4cccc(S(C)(=O)=O)c4)cc3)c(C)nc12 [Example 70, 5-methoxy-3-methyl-2-[3′-(methylsulfonyl)biphenyl-4-yl]quinoxaline] | > 1000 | –
9 | Cc1nc2cccc(C(F)(F)F)c2nc1-c1ccc(-c2cccc(S(C)(=O)=O)c2)cc1 [Example 4, 2-methyl-3-[3′-(methylsulfonyl)biphenyl-4-yl]-5-(trifluoromethyl)quinoxaline] | > 1000 | 373
10 | Cc1nc2cccc(C(F)(F)F)c2nc1-c1cccc(Oc2cccc(S(C)(=O)=O)c2)c1 [Example 3, 2-methyl-3-{3-[3-(methylsulfonyl)phenoxy]phenyl}-5-(trifluoromethyl)quinoxaline] | 1290 | 251
11 | Cc1nc2c(C#N)cccc2nc1-c1ccc(-c2cccc(S(C)(=O)=O)c2)cc1 [Example 71, 3-methyl-2-[3′-(methylsulfonyl)biphenyl-4-yl]quinoxaline-5-carbonitrile] | > 1000 | –
12 | Cc1nc2c(C(F)(F)F)cccc2nc1-c1cc(Oc2cccc(S(=O)(=O)C(C)C)c2)ccc1Cl [Example 57, 2-(2-chloro-5-{3-[(1-methylethyl)sulfonyl]phenoxy}phenyl)-3-methyl-5-(trifluoromethyl)-quinoxaline] | 947 | 78.9
13 | Cc1nc2c(C(F)(F)F)cccc2nc1-c1cc(Oc2cccc(S(=O)(=O)CCCO)c2)ccc1Cl [Example 58, 3-[(3-{4-chloro-3-[3-methyl-5-(trifluoromethyl)quinoxalin-2-yl]phenoxy}phenyl)sulfonyl]-propan-1-ol] | 810 | 63.5
14 | Cc1nc2c(C(F)(F)F)cccc2nc1-c1cc(Oc2cccc(S(C)(=O)=O)c2)ccc1Cl [Example 36, 2-{2-chloro-5-[3-(methylsulfonyl)phenoxy]phenyl}-3-methyl-5-(trifluoromethyl)quinoxaline] | 292 | 19.5
15 | CS(=O)(=O)c1cccc(-c2cccc(Oc3cnc4c(Cl)cccc4n3)c2)c1 [Example 78, 5-chloro-2-{[3′-(methylsulfonyl)biphenyl-3-yl]oxy}quinoxaline] | > 1000 | 263
16 | CS(=O)(=O)c1cccc(-c2ccc(Oc3cnc4c(Cl)cccc4n3)cc2)c1 [Example 79, 5-chloro-2-{[3′-(methylsulfonyl)biphenyl-4-yl]oxy}quinoxaline] | > 1000 | > 1000
17 | Cc1nc2c(C(F)(F)F)cccc2nc1-c1cc(Oc2cc(F)cc(S(C)(=O)=O)c2)ccc1Cl [Example 59, 2-{2-chloro-5-[3-fluoro-5-(methylsulfonyl)phenoxy]phenyl}-3-methyl-5-(trifluoromethyl)-quinoxaline] | 249 | 32
18 | Cc1nc2cccc(C#N)c2nc1-c1ccc(-c2cccc(S(C)(=O)=O)c2)cc1 [Example 72, 2-methyl-3-[3′-(methylsulfonyl)biphenyl-4-yl]quinoxaline-5-carbonitrile] | > 1000 | 3020
19 | Cc1nc2cccc(C(F)(F)F)c2nc1-c1cc(Oc2cccc(S(C)(=O)=O)c2)ccc1Cl [Example 37, 3-{2-chloro-5-[3-(methylsulfonyl)phenoxy]phenyl}-2-methyl-5-(trifluoromethyl)quinoxaline] | 557 | 37
20 | Cc1nc2c(C(F)(F)F)cccc2nc1-c1ccc(-c2cccc(C(N)=O)c2)cc1 [Example 50, 4′-[3-methyl-5-(trifluoromethyl)quinoxalin-2-yl]biphenyl-3-carboxamide] | – | > 1000
21 | Cc1nc2cccc(C(F)(F)F)c2nc1-c1ccc(-c2cccc(NS(C)(=O)=O)c2)cc1 [Example 47, N-{4′-[3-methyl-8-(trifluoromethyl)quinoxalin-2-yl]biphenyl-3-yl}methanesulfonamide] | – | > 1000
22 | Cc1nc2c(C(F)(F)F)cccc2nc1-c1ccc(Oc2cccc(S(C)(=O)=O)c2)cc1F [Example 30, 2-{2-fluoro-4-[3-(methylsulfonyl)phenoxy]phenyl}-3-methyl-5-(trifluoromethyl)quinoxaline] | – | > 1000
23 | CS(=O)(=O)c1cccc(Oc2cccc(-c3cnc4cccc(Cl)c4n3)c2)c1 [Example 13, 8-chloro-2-{3-[3-(methylsulfonyl)phenoxy]phenyl}quinoxaline] | – | > 1000
24 | CS(=O)(=O)c1cccc(-c2ccc(-c3cnc4c(C(F)(F)F)cccc4n3)cc2)c1 [Example 22, 2-[3′-(methylsulfonyl)biphenyl-4-yl]-5-(trifluoromethyl)quinoxaline] | – | > 1000
25 | CCS(=O)(=O)c1cccc(Oc2cccc(-c3cnc4cccc(C(F)(F)F)c4n3)c2)c1 [Example 16, 2-{3-[3-(ethylsulfonyl)phenoxy]phenyl}-8-(trifluoromethyl)quinoxaline] | – | > 1000
26 | CNC(=O)c1cccc(-c2ccc(-c3nc4cccc(C(F)(F)F)c4nc3C)cc2)c1 [Example 52, N-methyl-4′-[3-methyl-5-(trifluoromethyl)quinoxalin-2-yl]biphenyl-3-carboxamide] | – | > 1000
27 | Cc1nc2cccc(C(F)(F)F)c2nc1-c1ccc(Oc2cccc(S(C)(=O)=O)c2)cc1F [Example 29, 3-{2-fluoro-4-[3-(methylsulfonyl)phenoxy]phenyl}-2-methyl-5-(trifluoromethyl)quinoxaline] | – | > 1000
28 | Cc1nc2c(Cl)cccc2nc1Oc1cccc(-c2cccc(NS(C)(=O)=O)c2)c1 [Example 90, N-{3′-[(5-chloro-3-methylquinoxalin-2-yl)oxy]biphenyl-3-yl}methanesulfonamide] | – | > 1000

Source: US20100120778A1, “QUINOXALINE-BASED LXR MODULATORS” (Wyeth, priority 2008, published 2010)
